Source: the supplement of paper PMC11208160

Experiment: recombinant UMI read abundance after kanamycin selection (control-corrected) (log10(CPM+1)); higher = more efficient recombination; extreme values may be limits of the assay; sequences stand for … in AGTGCAGAGAAAATCGGCCAGTTTTCTCTGCCTGCAGTCCGCATGCCGTGGGACCCCTTGGGTTCTAACCTGTTGCCTAGATTTATGCAGCGGACTGCCTTTCTCCCAAAGTGATAAACCGG…AGGTTGGTTTCACT; site = the 11-nt donor
In short: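 After plating on IPTG (0.07 mM) plus kanamycin, or unselected, in two replicates, recombinant UMIs were PCR-amplified across the donor–target junction and sequenced. The cells were Escherichia coli co-electroporated with a UMI-tagged donor and donor-binding-loop pair library and a target plasmid with a fixed target and T7-inducible IS621 bridge recombinase. Values are log10(CPM+1), with CPM averaged over replicates and scaled by control-derived factors.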
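Note: IS621 bridge recombinase in Escherichia coli cells against a fixed T5 target plasmid.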

Sequence | recombinant UMI read abundance (log10)
GCTACTGCATGGACCGGTTTTCCCGGTAATCCGTATTTGCG (site GCTACTGCTTG) | 1.35
GCTACTGCATGGACCGGTTTTCCCGGTAATCCGTATTTGTC (site GCTACTGCTGA) | 1.83
GCTACTGCATGGACCGGTTTTCCCGGTAATCCGTATTTGTC (site GCTACTGCTGC) | 0
GCTACTGCATGGACCGGTTTTCCCGGTAATCCGTATTTGTC (site GCTACTGCTGG) | 0.571
GCTACTGCATGGACCGGTTTTCCCGGTAATCCGTATTTGTC (site GCTACTGCTGT) | 0.512
GCTAGAACATGGACCGGTTTTCCCGGTAATCCGTATTTGAG (site ACTAGAACTCT) | 0.959
GCTAGAACATGGACCGGTTTTCCCGGTAATCCGTATTTGAG (site CCTAGAACTCT) | 0.439
GCTAGAACATGGACCGGTTTTCCCGGTAATCCGTATTTGAG (site GCTAGAACTCT) | 1.83
GCTAGAACATGGACCGGTTTTCCCGGTAATCCGTATTTGAG (site TCTAGAACTCT) | 0.815
GCTAGGCCATGGACCGGTTTTCCCGGTAATCCGTATTTGAG (site GCTAGGCCTCT) | 0.0384
GCTATACCATGGACCGGTTTTCCCGGTAATCCGTATTTGTA (site GCTATACCTTA) | 0.0042
GCTATCTCATGGACCGGTTTTCCCGGTAATCCGTATTTGAA (site GCTATCTCTTT) | 1.86
GCTCCTGCATGGACCGGTTTTCCCGGTAATCCGTATTTGCC (site GCTACTGCTGG) | 0.902
GCTCCTGCATGGACCGGTTTTCCCGGTAATCCGTATTTGCC (site GCTCCTGCTGG) | 0.921
GCTCCTGCATGGACCGGTTTTCCCGGTAATCCGTATTTGCC (site GCTGCTGCTGG) | 0
GCTCCTGCATGGACCGGTTTTCCCGGTAATCCGTATTTGCC (site GCTTCTGCTGG) | 0
GCTGGCCCATGGACCGGTTTTCCCGGTAATCCGTATTTGAT (site GCTAGCCCTAT) | 0.0226
GCTGGCCCATGGACCGGTTTTCCCGGTAATCCGTATTTGAT (site GCTCGCCCTAT) | 0.00439
GCTGGCCCATGGACCGGTTTTCCCGGTAATCCGTATTTGAT (site GCTGGCCCTAT) | 0.00519
GCTGGCCCATGGACCGGTTTTCCCGGTAATCCGTATTTGAT (site GCTTGCCCTAT) | 0
GCTGGTCCATGGACCGGTTTTCCCGGTAATCCGTATTTGTA (site GCTGGTCCTTA) | 0.297
GCTGTCCCATGGACCGGTTTTCCCGGTAATCCGTATTTGGC (site GCTGTCCCTGC) | 0
GCTGTTCCATGGACCGGTTTTCCCGGTAATCCGTATTTGGT (site GATGTTCCTAC) | 0.0117

Sequence | recombinant UMI read abundance (log10)
GCTGTTCCATGGACCGGTTTTCCCGGTAATCCGTATTTGGT (site GCTGTTCCTAC) | 0
GCTGTTCCATGGACCGGTTTTCCCGGTAATCCGTATTTGGT (site GGTGTTCCTAC) | 0.0107
GCTGTTCCATGGACCGGTTTTCCCGGTAATCCGTATTTGGT (site GTTGTTCCTAC) | 0
GCTTGCCCATGGACCGGTTTTCCCGGTAATCCGTATTTGAT (site ACTTGCCCTAT) | 0
GCTTGCCCATGGACCGGTTTTCCCGGTAATCCGTATTTGAT (site CCTTGCCCTAT) | 0.0733
GCTTGCCCATGGACCGGTTTTCCCGGTAATCCGTATTTGAT (site GATTGCCCTAT) | 0.0145
GCTTGCCCATGGACCGGTTTTCCCGGTAATCCGTATTTGAT (site GCATGCCCTAT) | 0.0036
GCTTGCCCATGGACCGGTTTTCCCGGTAATCCGTATTTGAT (site GCCTGCCCTAT) | 0.0885
GCTTGCCCATGGACCGGTTTTCCCGGTAATCCGTATTTGAT (site GCGTGCCCTAT) | 0.0338
GCTTGCCCATGGACCGGTTTTCCCGGTAATCCGTATTTGAT (site GCTAGCCCTAT) | 0.00265
GCTTGCCCATGGACCGGTTTTCCCGGTAATCCGTATTTGAT (site GCTCGCCCTAT) | 0.249
GCTTGCCCATGGACCGGTTTTCCCGGTAATCCGTATTTGAT (site GCTGGCCCTAT) | 0.00346
GCTTGCCCATGGACCGGTTTTCCCGGTAATCCGTATTTGAT (site GCTTACCCTAT) | 0.00934
GCTTGCCCATGGACCGGTTTTCCCGGTAATCCGTATTTGAT (site GCTTCCCCTAT) | 0.0974
GCTTGCCCATGGACCGGTTTTCCCGGTAATCCGTATTTGAT (site GCTTGACCTAT) | 0.0101
GCTTGCCCATGGACCGGTTTTCCCGGTAATCCGTATTTGAT (site GCTTGCACTAT) | 0.00776
GCTTGCCCATGGACCGGTTTTCCCGGTAATCCGTATTTGAT (site GCTTGCCCTAA) | 0.00772
GCTTGCCCATGGACCGGTTTTCCCGGTAATCCGTATTTGAT (site GCTTGCCCTAC) | 0.00771
GCTTGCCCATGGACCGGTTTTCCCGGTAATCCGTATTTGAT (site GCTTGCCCTAG) | 0
GCTTGCCCATGGACCGGTTTTCCCGGTAATCCGTATTTGAT (site GCTTGCCCTAT) | 0.0141
GCTTGCCCATGGACCGGTTTTCCCGGTAATCCGTATTTGAT (site GCTTGCCCTCT) | 0.0236
GCTTGCCCATGGACCGGTTTTCCCGGTAATCCGTATTTGAT (site GCTTGCCCTGT) | 0
GCTTGCCCATGGACCGGTTTTCCCGGTAATCCGTATTTGAT (site GCTTGCCCTTT) | 0.0171

Sequence | recombinant UMI read abundance (log10)
GCTTGCCCATGGACCGGTTTTCCCGGTAATCCGTATTTGAT (site GCTTGCGCTAT) | 0.0038
GCTTGCCCATGGACCGGTTTTCCCGGTAATCCGTATTTGAT (site GCTTGCTCTAT) | 0.571
GCTTGCCCATGGACCGGTTTTCCCGGTAATCCGTATTTGAT (site GCTTGGCCTAT) | 0.0246
GCTTGCCCATGGACCGGTTTTCCCGGTAATCCGTATTTGAT (site GCTTGTCCTAT) | 0.00271
GCTTGCCCATGGACCGGTTTTCCCGGTAATCCGTATTTGAT (site GCTTTCCCTAT) | 0
GCTTGCCCATGGACCGGTTTTCCCGGTAATCCGTATTTGAT (site GGTTGCCCTAT) | 0.0122
GCTTGCCCATGGACCGGTTTTCCCGGTAATCCGTATTTGAT (site GTTTGCCCTAT) | 0.00461
GCTTGCCCATGGACCGGTTTTCCCGGTAATCCGTATTTGAT (site TCTTGCCCTAT) | 0.0164
GCTTGCGCATGGACCGGTTTTCCCGGTAATCCGTATTTGAT (site GCTTGCACTAT) | 0.734
GCTTGCGCATGGACCGGTTTTCCCGGTAATCCGTATTTGAT (site GCTTGCCCTAT) | 0.00863
GCTTGCGCATGGACCGGTTTTCCCGGTAATCCGTATTTGAT (site GCTTGCGCTAT) | 1.72
GCTTGCGCATGGACCGGTTTTCCCGGTAATCCGTATTTGAT (site GCTTGCTCTAT) | 0
GGAACCCCATGGACCGGTTTTCCCGGTAATCCGTATTTGTC (site GGAACCCCTGA) | 0.334
GGAAGCACATGGACCGGTTTTCCCGGTAATCCGTATTTGTG (site GGAAGCACTCA) | 1.4
GGAATTCCATGGACCGGTTTTCCCGGTAATCCGTATTTGCA (site GGAATTCCTTG) | 0
GGACCACCATGGACCGGTTTTCCCGGTAATCCGTATTTGCG (site GGACCACCTCG) | 0.0308
GGACGCTCATGGACCGGTTTTCCCGGTAATCCGTATTTGAG (site GGACGCTCTCT) | 1.55
GGACGTCCATGGACCGGTTTTCCCGGTAATCCGTATTTGCC (site GGACGTCCTGG) | 1.75
GGACTAGCATGGACCGGTTTTCCCGGTAATCCGTATTTGCG (site GGACTAGCTCG) | 2.05
GGACTCACATGGACCGGTTTTCCCGGTAATCCGTATTTGCA (site GGACTCACTTG) | 2.37
GGAGCCCCATGGACCGGTTTTCCCGGTAATCCGTATTTGCG (site GGAGCCCCTCG) | 0.00647
GGAGCGACATGGACCGGTTTTCCCGGTAATCCGTATTTGGA (site GGAGCGACTTC) | 0.237
